Results from patent publication US12661416B2, “Combinations of imaging agent conjugates and application thereof” (Curadel Surgical Innovations, Inc., priority 2023, dated 2026).

Assays:
[1] = In vitro stability in warm serum (normalized absorbance / absorption spectra over time); assay type: in vitro ADME; details: compared to ZW800-1
Method: cRGD-ZW700-1c ZW700-1c, and ZW-800-1 are shown in FIG. 1 and are characterized with respect to their optical properties and stability in vitro. Commercial NIR fluorophores, such as IRDye™800-RS (RS-800), IRDye800-CW (CW-800), Cy5.5, and Cy7 have various degrees of sulfonation in order to achieve aqueous solubility.
The normalized absorbance of ZW800-1 and ZW700-1c in 37° C. buffered FBS, pH 7.4 over time from 0 to 60 hours are shown in FIGS. 2-4.

Stability in serum = assay type: in vitro ADME

| SMILES | stability (normalized absorbance over time) ([1]; 37° C. buffered FBS, pH 7.4, 0 to 60 hours) | stability over time (changes in absorption spectra during metabolism in warm serum) ([1]; warm serum) | stability in serum (Stability in serum) |
| --- | --- | --- | --- |
| CC1(C)C(/C=C/C(=C/C=C2/N(CCC[N+](C)(C)C)c3ccc(S(=O)(=O)[O-])cc3C2(C)C)c2ccc(CCC(=O)[O-])cc2)=[N+](CCC[N+](C)(C)C)c2ccc(S(=O)(=O)[O-])cc21 [ZW700-1c] | extreme stability | high stability |  |
| N=C(N)NCC[C@@H]1NC(=O)[C@H](CCCCN)NC(=O)[C@@H](Cc2ccc(O)cc2)NC(=O)[C@H](C(=O)O)NC(=O)CNC1=O [cRGD] |  |  | stable in serum for days |
